Assay results as given in patent US11020392B2, “Use of trimetazidine as a hepatoprotective medicine in prevention and treatment of liver diseases and conditions” (Martin Pharmaceuticals, Inc., priority 2015, dated 2021).

Columns and labels:
[1] = test system: liver failure patients; assay: Clinical cohort study of trimetazidine in hepatic failure patients (ALT/AST decrease, TMZ vs DCA); assay type: in vivo, human; details: after 5 days of treatment, both groups also on basic treatment incl. LOLA, FIG. 2
From the text: The single-center cohort study was adopted as the clinical trial method.
In accordance with relevant references and the results of previous trials, the number of cases shall be no less than 50. Taking into account the number of loss to follow up and possible drop-out (to be controlled around 10%), 60 cases are required to be selected (30 cases for the trial group and 30 cases for the control group).
All serious hepatitis patients enrolled between Aug. 19, 2014 and […] were put in the control group; and all those enrolled between December 9 and the application date were in the trial group.
2. Exclusion Criteria • Patients under 18 or over 70 years old; • Patients diagnosed with shock liver (ischemic liver disease); • Patients with liver failure in pregnancy or HELLP syndrome; • Patients with liver failure secondary to malignant tumor in the liver; • Patients with refractory hypotension • Patients with septic shock; • Patients about to receive liver transplant (within 8 hours); • Patients allergic to trimetazidine drug; • Patients […] of trimetazidine drug; • Abuser of drugs and/or alcohol; • Pregnant or lactation women; • Patients with recent myocardial infarct (within half a year); • Patients with serious renal inadequacy.
2. Control group: Diisopropylamine Dichloroacetate (DCA) (80 mg/D) for the control group in this trial, provided by Dandong Yichuang Pharmaceutical Co., Ltd, for a 4-week course of treatment.
3. Both trial group and control group were also given basic treatment to meet ethical requirements. […] HBV-related liver failure patients were also treated with lamivudine.
1. Alanine aminotransferase (ALT), tested by chromatometry, with products provided by Roche Diagnostics (Shanghai) Ltd.
2. Aspartate transaminase (AST), tested by chromatometry, with products provided by Roche Diagnostics (Shanghai) Ltd.

[2] = test system: Chang liver cells; assay type: cell-based; details: 10 mM NH4Cl; 1 mM LOLA, 1 mM TMZ, or 1 mM TMZ+1 mM LOLA; hypoxic (10% O2); FIG. 7
Protocol: Chang liver cells (American Type Culture Collection No. CCL-13) was cultured in RPMI1640 medium (Solarbio) containing 10% fetal bovine serum (Gibco), 100 u/mL penicillin and 100 μg/mL […], at 37° C. and under hypoxic conditions (10% O2, 5% CO2) and saturated humidity.

[3] = test system: liver of liver failure patients; assay: PET-CT imaging of liver FDG uptake before and after treatment; assay type: in vivo, human; details: liver failure patient(s), after vs before treatment; FIG. 4
From the text: Intriguingly, we were able to compare the PET-CT images before and after liver failure recovery in two participants who underwent PET-CT imaging due to suspicious liver lesions by magnet renascence imaging.

[4] = test system: liver failure patients; assay: Large-scale randomized clinical trial, 165 liver failure patients (control, LOLA, TMZ+LOLA)
From the text: We recruited totally 298 patients with liver failure according to the American and European criteria.

[5] = test system: SD rats; assay: Hyperammonemia rat model (oral ammonium chloride, 30 days); assay type: in vivo; details: OA (LOLA) 0.8 g/kg, TMZ 0.002 g/kg orally, or both; FIG. 8
From the text: All five groups of rats were sacrificed after 30 days with pentobarbital anesthesia. Cardiac blood samples were collected to test blood levels of ammonia, ALT and AST. Liver biopsy specimens were collected and subject to hematoxylin-eosin (HE) staining and TUNEL staining to assess pathology.

[6] = test system: patients with liver failure / serious hepatitis; assay: Clinical cases: individual patients given oral TMZ on top of combined treatment; assay type: in vivo, human
From the text: Case 1: The patient had past positive HBsAg for over 20 years, during which they took multiple reexaminations of liver function and, as the results of all color ultrasound examinations were within normal range, they were not given any special treatment. Three months before, after catching cold and overwork, they developed abdominal distension and yellow urine, and was admitted to hospital following aggravation of the condition over 6 days. On admission, they were complicated with massive seroperitoneum and serious xanthochromia throughout the skin and mucosa of their whole body, feeling serious nausea, anorexia and feebleness.
Case 2: had had yellow urine for 25 days and dry mouth and bitter taste in mouth for 10 days before they came to the First Affiliated Hospital of Zhengzhou University. […] If they had been treated with the original approach, it would probably have taken two months before they could be discharged from hospital.
Case 3: had past positive HBsAg for 8 years, without regular treatment or periodic reexamination of relevant indicators. […] They took orally some “stomach medicine” (specific medicine not known) with poor effect. After the aforesaid symptoms aggravated for half a month, with urine turning as yellow as strong tea water, they were admitted to the First Affiliated Hospital of Zhengzhou University on Jan. 21, 2015. […] In merely 12 days, the patient achieved decrease of transaminase by dozens of times, relief from the critical condition, alleviated hepatocyte inflammatory responses and a favorable condition for liver cells, and greatly shortened length of hospitalization.
Case 4: […] They felt abdominal distension and nausea, accompanied with hydroncus in lower limbs, when they were tired half a month ago. For further treatment, they were admitted to the First Affiliated Hospital of Zhengzhou University on Jan. 13, 2015. Color ultrasound examination of abdomen detected diffuse changes of echo patterns of liver, cholecystolithiasis and cholecystitis. […] The patient's liver enzyme decreased to normal level after a short period, meeting the requirements for a surgical operation. Following the operation, their abdominal pain disappeared, with liver enzyme back to normal level and improved appetite. Their quality of life improves now without any discomfort.
Case 5: had past positive HBsAg for over 10 years, with HBsAg (+), HBeAg (+) and HBcAb (+), and had atrial fibrillation over 5 years, during which they orally took traditional Chinese medicine intermittently, but without regular treatment. They complained of feebleness, nausea, dry mouth and bitter taste, and anorexia for 6 days, and was hospitalized on Jan. 31, 2015. After admission, they had ALT 1881 u/L, AST 699 u/L, and prothrombin time activity (PTA) at 26%. The patient was extremely weak, in very poor spirits, with very poor appetite. A notice of critical illness diagnosis was given. […] The patient achieved a rapid decrease of transaminase and obvious improvement of liver synthesis function, and was safe from the critical condition. They continued to take the medicine till maturity of the treatment course, to improve the hepatocyte microcirculation and excretion of bilirubin. The patient soon recovered and left hospital.

Compound	ALT decrease (k, mathematical model) [1]	AST decrease (k, mathematical model) [1]	reduction of ammonia in hepatocytes [2]	FDG uptake / hepatic glucose metabolism of liver (PET-CT) [3]	30-day immortality rate ([4]; TMZ treatment group (TMZ+LOLA), TMZ 20 mg orally three times a day, 4 weeks, 44% with traditional therapeutic approach, FIG. 5)	90-day immortality rate ([4]; TMZ treatment group (TMZ+LOLA), TMZ 20 mg orally three times a day, 4 weeks, 68% with traditional therapeutic approach, FIG. 5) [%]	serious adverse reaction during the clinical trial ([4]; liver failure patients, TMZ 20 mg three times a day)	integrity of mitochondrial structure in hepatocytes exposed to ammonia (electron microscope) [5]	ALT ([6]; Case 1, HBsAg positive person, 12 days of TMZ one tablet three times a day plus combined treatment, ALT 270 u/L at admission) [u/L]	AST ([6]; Case 1, 12 days of TMZ, AST 303 u/L at admission) [u/L]	ALT ([6]; Case 2, serious drug-induced hepatitis, oral TMZ 20 days plus combined treatment, ALT 983 u/L at admission) [u/L]	total bilirubin ([6]; Case 2, oral TMZ 20 days, 401.9 umol/L at admission) [µmol/L]	AST ([6]; Case 2, oral TMZ 20 days, AST 484 u/L at admission) [u/L]	ALT ([6]; Case 3, acute-on-chronic liver failure, oral TMZ plus antiviral treatment, admitted Jan. 21, reexamined February 5 (12 days), ALT 1386 u/L at admission) [u/L]	AST ([6]; Case 3, reexamined February 5, AST 1368 u/L at admission) [u/L]	ALT ([6]; Case 4, HBsAg positive person, oral TMZ 13 days plus hepatoprotective and antiviral treatment, ALT 599 u/L before) [u/L]	AST ([6]; Case 4, oral TMZ 13 days, AST 663 u/L before) [u/L]	prothrombin time activity (PTA) ([6]; Case 5, one week of oral TMZ, 26% at admission) [%]	AST ([6]; Case 5, one week of oral TMZ, AST 699 u/L at admission) [u/L]
COc1ccc(CN2CCNCC2)c(OC)c1OC.Cl.Cl [TMZ, 1-[2,3,4-trimethoxybenzyl]piperazine dihydrochloride]	259.4	362.53	greater effects compared to both LOLA treatment and TMZ+LOLA co-treatment	remarkably improved	approximately 18%	35	no serious adverse reaction occurred	nearly reversed the ammonia-induced mitochondria injury	41	68	95	130	52	76	85	66	79	48	77
Diisopropylamine Dichloroacetate [DCA]	67.325	142.77	–	–	–	–	–	–	–	–	–	–	–	–	–	–	–	–	–
